Structures can show the parent of a compound that is named as a salt. Where two headings read alike, the source gives them in different places.
Legend:
[1] = Protein binding, solid phase extraction (SPE) method; assay type: in vitro ADME, human; conditions: human, human plasma, 1.0E−05M, SPE sample preparation
Description: (§1) A solid phase extraction (SPE) method was used to prepare samples for several compounds in the plasma protein binding assay. The following SPE protocols were followed:
(§2) Sorbent: Waters Oasis MCX 96—well MicroElution Plate—Cat #186001830BA Sample: 200 μL of plasma spiked at 10 μM with test compound. Sample was diluted 1:1 with 4% phosphoric acid in water and mixed for 15 minutes 1) Place Oasis plate on vacuum manifold and set vacuum to 5″ Hg; 2) Condition with 200 μL methanol; 3) Equilibrate with 200 μL water; 4) Load dilute plasma sample; 5) Wash with 200 μL 2% formic acid in water; 6) Wash with 400 μL methanol; and 7) Elute with 100 μL 5% NH4OH in methanol.
as §2, with “MAX 96-well” for “MCX 96—well”, “plate—Cat #186001829” for “Plate—Cat #186001830BA”, “5% NH4OH” for “2% formic acid”, “2% formic acid” for “5% NH4OH”

[2] = test system: human plasma; assay: as above; assay type: in vitro ADME; conditions: 1.0E−05M; SPE sample preparation
Description: as §1, §2
as §2, with “MAX 96-well” for “MCX 96—well”, “plate—Cat #186001829” for “Plate—Cat #186001830BA”, “5% NH4OH” for “2% formic acid”, “2% formic acid” for “5% NH4OH”

[3] = In-vitro absorption, Caco-2 A-B permeability; assay type: in vitro ADME, human; conditions: human, Caco-2, pH 7.4, Caco-2 A-B, without verapamil; for Papp A→B at 60 min, 10 μM: 1.0E−05M
Description: (§3) Conditions may be adjusted when necessary.
(§4) D denotes donor and R is receiver. […] V is the volume of the donor or receiver.
(§5) The test was performed with and without verapamil, which is a permeation inhibitor, and the results are presented in Tables 22 (without verapamil) and 34 (with verapamil).

[4] = test system: P-gp; assay: In-vitro absorption, Caco-2 A-B permeability; assay type: in vitro ADME, human; conditions: human, Caco-2, pH 7.4, with verapamil 100 μM on both the A and B sides, Caco-2 A-B, in the presence of verapamil
Description: as §3, §4, §5

[5] = in vitro; conditions: human
Description: Caco-2 cells are human intestinal epithelial cells derived from a colorectal adenocarcinoma.
The assays are performed in both the apical to basolateral (A-B) and the B-A direction. The test compound is prepared at 10 μM in HBSS-HEPES (pH 7.4) with a final DMSO concentration of 1%. The working solution is centrifuged, and the supernatant is added to the donor side. The assay plate is incubated at 37° C. with gentle shaking for 60 min or 40 min for the A-B or B-A assay, respectively. For Pgp substrate assessment, the assays are run with and without 100 μM verapamil on both the A and B sides. For BCRP substrate assessment, the assays are run with and without 10 μM Ko143 on both the A and B sides. For MRP2 substrate assessment, the assays are run with and without 100 μM MK571 on both the A and B sides. Samples are aliquoted from the donor side at time zero and the end point, and from the receiver side at the end point.
Propranolol (highly permeable), labetalol (moderately permeable), ranitidine (poorly permeable), and colchicine (P-glycoprotein substrate), estrone-3-sulfate (BCRP substrate), or CDCF (MRP2 substrate) are included in each assay.
Samples are analyzed by HPLC-MS/MS using selected reaction monitoring. The HPLC system consists of a binary LC pump with an autosampler, a C-18 column, and a gradient. Conditions may be adjusted when necessary.
Fluorescein permeability is assessed in the A-B direction at pH 7.4 on both sides after the permeability assay with the test compound. The cell monolayer with a fluorescein permeability of less than 1.5×10−6 cm/s is considered intact.
The apparent permeability coefficient (Papp) of the test compound and its recovery are calculated as follows: […]
A is the surface area of the cell monolayer (0.11 cm^2). C is concentration of the test compound, expressed as peak area. D denotes donor and R is receiver. 0, mid, and end denote time zero, mid-point, and end of the incubation. Δt is the incubation time. V is the volume of the donor or receiver.
The permeability capabilities of the several LDAA compounds, in their TFA salt form, were determined using the Caco-2 B-A method.

[6] = read-out: Percent Recovery Mean
[7] = Caco-2, pH 7.4, Percent Recovery 1st
[8] = Caco-2, pH 7.4, Percent Recovery 2nd
[9] = Caco-2, pH 7.4, Percent Recovery Mean
[10] = Caco-2, pH 7.4, Permeability 1st
[11] = Caco-2, pH 7.4, Permeability 2nd
[12] = Caco-2, pH 7.4, Permeability Mean

Q: Which results are given for `N[C@@H](CSC[C@H](NC(=O)[C@@H](N)Cc1ccc(O)c(O)c1)C(=O)O)C(=O)O` (single isomer, unassigned; peak 2) [LD-LA2 TFA salt, Levodopa Lanthionine Peak 2 TFA Salt]?
A: recovery at 10 μM ([1]; read-out: % Recovery 1st): 39%; recovery at 10 μM ([1]; read-out: % Recovery 2nd): 46%; recovery at 10 μM ([1]; read-out: % Recovery Mean): 43%; % Protein Bound 1st [2]: 18.7%; % Protein Bound Mean [2]: 18.7%; Papp A→B at 60 min, 10 μM ([3]; read-out: Permeability 1st): 20.2 ×10⁻⁶ cm/s; Papp A→B at 60 min, 10 μM ([3]; read-out: Permeability 2nd): 17.8 ×10⁻⁶ cm/s; Papp A→B at 60 min, 10 μM ([3]; read-out: Permeability Mean): 19 ×10⁻⁶ cm/s; recovery at 60 min, 10 μM ([3]; read-out: Percent Recovery 1st): 86%; recovery at 60 min, 10 μM ([3]; read-out: Percent Recovery 2nd): 91%; recovery at 60 min, 10 μM [3, 6]: 89%; recovery at 60 min, 10 μM ([4]; read-out: Percent Recovery 1st): 89%; recovery at 60 min, 10 μM ([4]; read-out: Percent Recovery 2nd): 87%; recovery at 60 min, 10 μM [4, 6]: 88%; recovery at 40 min, 10 μM [5, 7]: 79%; recovery at 40 min, 10 μM [5, 8]: 69%; recovery at 40 min, 10 μM [5, 9]: 74%; Papp B→A at 40 min, 10 μM [5, 10]: 13 ×10⁻⁶ cm/s; Papp B→A at 40 min, 10 μM [5, 11]: 13.6 ×10⁻⁶ cm/s; Papp B→A at 40 min, 10 μM [5, 12]: 13.3 ×10⁻⁶ cm/s

Q: Which recovery at 10 μM ([1]; read-out: % Recovery 1st) does the source give for `N[C@@H](Cc1ccc(O)c(O)c1)C(=O)O` [LD (control), L-3,4-dihydroxyphenylalanine, reference compound] here?
A: 59%

Q: And the recovery at 10 μM ([1]; read-out: % Recovery 2nd)?
A: 78%

Q: What about the recovery at 10 μM ([1]; read-out: % Recovery Mean) of the same compound?
A: 68%

Q: What about the “% Protein Bound 1st” value [2] of the same compound?
A: 30.4%

Q: What about the “% Protein Bound 2nd” value [2] of the same compound?
A: 20.2%

Q: What about the “% Protein Bound Mean” value [2] of the same compound?
A: 25%

Q: What about the Papp A→B at 60 min, 10 μM ([3]; read-out: Permeability 1st) of the same compound?
A: 1.15 ×10⁻⁶ cm/s

Q: What about the Papp A→B at 60 min, 10 μM ([3]; read-out: Permeability 2nd) of the same compound?
A: 1.25 ×10⁻⁶ cm/s

Q: And the Papp A→B at 60 min, 10 μM ([3]; read-out: Permeability Mean)?
A: 1.2 ×10⁻⁶ cm/s

Q: And the recovery at 60 min, 10 μM ([3]; read-out: Percent Recovery 1st)?
A: 37%

Q: And the recovery at 60 min, 10 μM ([3]; read-out: Percent Recovery 2nd)?
A: 22%

Q: And the recovery at 60 min, 10 μM [3, 6]?
A: 29%

Q: What about the recovery at 60 min, 10 μM ([4]; read-out: Percent Recovery 1st) of the same compound?
A: 63%

Q: What about the recovery at 60 min, 10 μM ([4]; read-out: Percent Recovery 2nd) of the same compound?
A: 41%

Q: And the recovery at 60 min, 10 μM [4, 6]?
A: 52%

Q: What about the recovery at 40 min, 10 μM [5, 7] of the same compound?
A: 101%

Q: What about the recovery at 40 min, 10 μM [5, 8] of the same compound?
A: 92%

Q: What about the recovery at 40 min, 10 μM [5, 9] of the same compound?
A: 96%

Q: What about the Papp B→A at 40 min, 10 μM [5, 10] of the same compound?
A: 0.38 ×10⁻⁶ cm/s

Q: And the Papp B→A at 40 min, 10 μM [5, 11]?
A: 0.41 ×10⁻⁶ cm/s

Q: What about the Papp B→A at 40 min, 10 μM [5, 12] of the same compound?
A: < 0.4 ×10⁻⁶ cm/s
